Experimental data: patent publication US20190100790A1, “DETERMINATION OF NOTCH PATHWAY ACTIVITY USING UNIQUE COMBINATION OF TARGET GENES” (KONINKLIJKE PHILIPS N.V., priority 2017, published 2019)

System: Notch cellular signaling pathway
Experiment: Notch pathway activity predicted by Bayesian network model from target gene expression, MOLT4 cell line (data set GSE6495)
Assay type: cell-based, human
Settings: MOLT4 cells, 48 hours, 5 μM
Source text: Herein, an exemplary Bayesian network model as shown in FIG. 2 was used to model the transcriptional program of the Notch cellular signaling pathway in a simple manner. The model consists of three types of nodes: (a) a transcription factor (TF) element (with states “absent” and “present”) in a first layer 1; (b) target genes TG1, TG2, TGn (with states “down” and “up”) in a second layer 2, and; (c) measurement nodes linked to the expression levels of the target genes in a third layer 3. These can be microarray probesets PS1,1, PS1,2, PS1,3, PS2,1, PSn,1, PSn,m (with states “low” and “high”), as preferably used herein, but could also be other gene expression measurements such as RNAseq or RT-qPCR.
A suitable implementation of the mathematical model, herein, the exemplary Bayesian network model, is based on microarray data. The model describes (i) how the expression levels of the target genes depend on the activation of the TF element, and (ii) how probeset intensities, in turn, depend on the expression levels of the respective target genes. For the latter, probeset intensities may be taken from fRMA pre-processed Affymetrix HG-U133Plus2.0 microarrays, which are widely available from the Gene Expression Omnibus (GEO, www.ncbi.nlm.nih.gov/geo) and ArrayExpress (www.ebi.ac.uk/arrayexpress). […]

Structure (SMILES): C[C@H](NC(=O)Cc1cc(F)cc(F)c1)C(=O)N[C@H](C(=O)OC(C)(C)C)c1ccccc1 [DAPT]
- Notch cellular signaling pathway activity (odds that the TF element is present) (18 target genes shortlist model, vs untreated (FIG. 11)): decrease in Notch activity
- Notch cellular signaling pathway activity (odds that the TF element is present) (26 target genes list model, vs untreated (FIG. 12)): decrease in Notch activity
